{"source": "patent US10792340B2", "about": "“Antibacterial composition for combating carbapenem-resistant gram-negative bacteria comprising ADK protein as active ingredient” (KONKUK UNIVERSITY GLOCAL INDUSTRY-ACADEMIC COLLABORATION …, priority 2015, dated 2020)", "type_in_all_cases": "cell-based", "key": {"[1]": {"system": "Acinetobacter baumannii, which is a normal strain", "assay": "Rezazurin assay, MIC and MBC, normal strain (control)"}, "[2]": {"system": "carbapenem-resistant Acinetobacter baumannii (KUMC.2014.91)", "assay": "Rezazurin assay, MIC and MBC, carbapenem-resistant strain KUMC.2014.91"}, "[3]": {"system": "carbapenem-resistant Acinetobacter baumannii (KUMC.2014.90)", "assay": "Rezazurin assay, MIC and MBC, carbapenem-resistant strain KUMC.2014.90"}}}
{"smiles": "CC1(C)S[C@@H]2[C@H](NC(=O)[C@H](N)c3ccccc3)C(=O)N2[C@H]1C(=O)O", "note": "[Ampicillin]", "values": [{"measurement": "growth inhibition (in words)", "setting": "[1]", "value": "inhibited the growth"}, {"measurement": "MIC50", "setting": "[1]; 50% inhibitory concentration, testing range 0.45~500", "value": "< 31.3", "unit": "µg/mL"}, {"measurement": "MIC80", "setting": "[1]; 80% inhibitory concentration, testing range 0.45~500", "value": "< 62.5", "unit": "µg/mL"}, {"measurement": "MBC", "setting": "[1]; testing range 0.45~500", "value": "< 62.5", "unit": "µg/mL"}, {"measurement": "MIC 50%", "setting": "[2]; Acinetobacter baumannii (KUMC.2014.91), 50% inhibitory concentration, testing range 0.45~500", "value": "No effect"}, {"measurement": "MIC 80%", "setting": "[2]; Acinetobacter baumannii (KUMC.2014.91), 80% inhibitory concentration, testing range 0.45~500", "value": "No effect"}, {"measurement": "MBC", "setting": "[2]; Acinetobacter baumannii (KUMC.2014.91), testing range 0.45~500", "value": "No effect"}, {"measurement": "growth inhibition (in words)", "setting": "[2]; carbapenem-resistant KUMC.2014.91 strain", "value": "unable to inhibit the growth"}, {"measurement": "MIC 50%", "setting": "[3]; Acinetobacter baumannii (KUMC.2014.90), 50% inhibitory concentration, testing range 0.45~500", "value": "No effect"}, {"measurement": "MIC 80%", "setting": "[3]; Acinetobacter baumannii (KUMC.2014.90), 80% inhibitory concentration, testing range 0.45~500", "value": "No effect"}, {"measurement": "MBC", "setting": "[3]; Acinetobacter baumannii (KUMC.2014.90), testing range 0.45~500", "value": "No effect"}, {"measurement": "growth inhibition (in words)", "setting": "[3]; carbapenem-resistant KUMC.2014.90 strain", "value": "unable to inhibit the growth"}]}
